According to the NIST ThermoML archive (doi:10.1016/j.jct.2012.12.014):

Assay: mn = molality of the nth substance listed, in mol/kg
Settings: 298.15 K, 101 kPa, Liquid, Vibrating tube method

Nc1cc[nH]c(=O)n1 [4-amino-2-hydroxypyrimidine] + O
Settings	mass density [kg/m3]
m1 = 0.02193	997.872
m1 = 0.02698	998.062
m1 = 0.03192	998.246
m1 = 0.03702	998.438
m1 = 0.04187	998.618
m1 = 0.04604	998.777
m1 = 0.05099	998.96
m1 = 0.05598	999.144
m1 = 0.06284	999.402
